Reference: patent US20030176479A1, “Use of selective EP4 receptor agonists for the treatment of liver failure, loss of patency of the ductus arteriosus, glaucoma or ocular hypertension” (priority 2002, published 2003)

What was measured:
rat EP4 receptor [1] = target: T1, rat EP4 receptor (Rattus norvegicus, UniProt P43114); assay: Rat EP4 receptor binding assay (3H-PGE2 displacement, 293S cell membranes); conditions: displacement of 3H-prostaglandin E2, 293S membranes, 1 hour at 25° C.
T1 construct: expressed in transfected cells
Description: (§1) The compounds of Formula I or II, which are useful in the methods of the present invention, bind to the prostaglandin E2 type 4 receptor (EP4 receptor). The full-length coding sequence for the human EP1 receptor is made in accordance with the procedure in Funk et al., Journal of Biological Chemistry, 1993, 268, 26767-26772. The full-length rat EP2 receptor is made in accordance with the procedure in Nemoto et al., Prostaglandins and other Lipid Mediators, 1997, 54, 713-725. The full-length coding sequence for the human EP3 receptor is made in accordance with the procedure in Regan et al., British Journal of Pharmacology, 1994, 112, 377-385. The full-length coding sequence for the rat EP4 receptor is made in accordance with the procedure in Sando et al., Biochem. Biophys. Res. Comm. 1994, 200,1329-1333. These full-length receptors are used to prepare 293S cells expressing the human EP1, rat EP2, human EP3 or rat EP4 receptors.
(§2) Human EP1, Rat EP2, Human EP3, Rat EP4 Receptor Binding Assay
(§3) The full-length receptors described above are used to prepare 293S cells expressing the EP1, EP2, EP3, and EP4 receptors.
(§4) 293S cells expressing either the human EP1, rat EP2, human EP3 or rat EP4 prostaglandin E2 receptors are generated according to methods known to those skilled in the art. Typically, PCR (polymerase chain reaction) primers corresponding to the 5′ and 3′ ends of the published full length receptor are made according to the well known methods disclosed above and are used in an RT-PCR (reverse transcriptase-polymerase chain reaction) reaction using the total RNA from human kidney (for EP1), rat kidney (for EP2), human lung (for EP3), or rat kidney (EP4) as a source. PCR products are cloned by the TA overhang method into pCR2.1 (Invitrogen Corporation, Carlsbad, Calif.) and identity of the cloned receptor is confirmed by DNA sequencing. For expression of the rat EP2 receptor, the confirmed cDNA is subcloned into the mammalian expression vector PURpCl, a vector generated by subcloning the selectable marker for puromycin resistance into the mammalian expression vector pCl (Promega, Madison, Wis.)
(§5) 293S cells are transfected with either the cloned human EP1 or EP3 receptor in pcDNA3 by electroporation. Stable cell lines expressing either the human EP1 or EP3 receptor are established following selection of transfected cells with G418. 293S cells are transfected with the cloned rat EP2 receptor in PURpCi by lipid mediated transfection. Stable cell lines expressing the rat EP2 receptor are established following selection of transfected cells with puromycin. 293S cells are transfected with the cloned rat EP4 receptor in pcDNA3 by lipid mediated transfection. Stable cell lines expressing the rat EP4 receptor are established following selection of transfected cells with Geneticin® (Invitrogen, Carlsbad, Calif.).
(§6) Clonal cell lines expressing the maximal number of receptors are chosen following a whole cell ^3H-PGE2 binding assay using unlabeled PGE2 as a competitor.
(§7) Membrane Preparation: All operations are performed at 4° C. Transfected cells expressing either prostaglandin E2 type 1, type 2, type 3, or type 4 (EP1, EP2, EP3, or EP4, respectively) receptors are harvested and suspended to 2 million cells per ml in Buffer A [50 mM Tris-HCl (pH 7.4), 10 mM MgCI2, 1 mM EDTA, 1 mM Pefabloc peptide, (Boehringer Mannheim Corp., Indianapolis, Ind.), 10 uM Phosporamidon peptide, (Sigma, St. Louis, Mo.), 1 uM pepstatin A peptide, (Sigma, St. Louis, Mo.), 10 uM elastatinal peptide, (Sigma, St. Louis, Mo.), 100 uM antipain peptide, (Sigma, St. Louis, Mo.)]. The cells are lysed by sonification with a Branson Sonifier (Branson Ultrasonics Corporation, Danbury, Conn.) in 2 fifteen-second bursts. Unlysed cells and debris are removed by centrifugation at 100 ×g for 10 min. Membranes are then harvested by centrifugation at 45,000×g for 30 minutes. […]

rat EP2 receptor = target: T2, rat EP2 receptor (Rattus norvegicus, UniProt Q62928); assay: Rat EP2 receptor binding assay (3H-PGE2 displacement, 293S cell membranes); conditions: displacement of 3H-prostaglandin E2, 293S membranes, 1 hour at 25° C.
T2 construct: The full-length rat EP2 receptor is made in accordance with the procedure in Nemoto et al; expressed in transfected cells
Description: as §1, §2, §3, §4, §5, §6, §7

human EP1 receptor = target: T3, human EP1 receptor (Homo sapiens, UniProt P34995); assay: Human EP1 receptor binding assay (3H-PGE2 displacement, 293S cell membranes); conditions: displacement of 3H-prostaglandin E2, 293S membranes, 1 hour at 25° C.
T3 construct: expressed in transfected cells
T3 sequence (P34995 1-402): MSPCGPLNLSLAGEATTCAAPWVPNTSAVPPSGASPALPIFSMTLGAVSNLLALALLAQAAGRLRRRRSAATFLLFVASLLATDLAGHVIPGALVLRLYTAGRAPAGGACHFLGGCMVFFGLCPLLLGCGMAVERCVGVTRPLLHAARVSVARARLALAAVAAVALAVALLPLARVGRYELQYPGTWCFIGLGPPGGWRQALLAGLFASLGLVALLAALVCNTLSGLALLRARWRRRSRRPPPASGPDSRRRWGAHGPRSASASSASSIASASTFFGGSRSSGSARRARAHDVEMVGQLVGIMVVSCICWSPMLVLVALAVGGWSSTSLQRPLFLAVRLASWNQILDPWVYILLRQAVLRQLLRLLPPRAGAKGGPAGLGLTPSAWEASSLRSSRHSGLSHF
Description: as §1, §2, §3, §4, §5, §6, §7

human EP3 receptor = target: T4, human EP3 receptor (Homo sapiens, UniProt P43115); assay: Human EP3 receptor binding assay (3H-PGE2 displacement, 293S cell membranes); conditions: displacement of 3H-prostaglandin E2, 293S membranes, 1 hour at 25° C.
T4 construct: expressed in transfected cells
T4 sequence (P43115 1-390): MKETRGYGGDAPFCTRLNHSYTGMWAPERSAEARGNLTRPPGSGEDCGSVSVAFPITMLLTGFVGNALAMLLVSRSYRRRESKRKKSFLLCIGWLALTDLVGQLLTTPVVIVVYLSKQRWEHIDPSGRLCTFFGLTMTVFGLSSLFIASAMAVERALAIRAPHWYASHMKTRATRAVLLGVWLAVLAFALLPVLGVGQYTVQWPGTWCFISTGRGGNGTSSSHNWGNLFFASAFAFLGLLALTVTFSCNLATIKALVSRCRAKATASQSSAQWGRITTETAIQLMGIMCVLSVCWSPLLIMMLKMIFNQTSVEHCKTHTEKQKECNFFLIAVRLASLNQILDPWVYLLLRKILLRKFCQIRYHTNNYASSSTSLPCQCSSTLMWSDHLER
Description: as §1, §2, §3, §4, §5, §6, §7

rat EP4 receptor [2] = target: T1, rat EP4 receptor; assay: Cyclic AMP elevation in 293S cell lines stably overexpressing recombinant rat EP4 receptors; assay type: cell-based; conditions: 293S cells expressing rat EP4, 1 mM IBMX, 12 minutes at 37° C.; read-out: EC50 in the cAMP (rat EP4) elevation assay
Description: Determination of Cyclic AMP Elevation in 293S Cell Lines Stably Overexpressing Recombinant Rat EP4 Receptors Assay
cDNA representing the complete open reading frame of the rat EP4 receptor is generated by reverse transcriptase polymerase chain reaction using oligonucleotide primers based on published sequences. The full length coding sequence for the rat EP4 receptor is made in accordance with the procedure in Sando et al., Biochem. Biophys. Res. Comm. 1994, 200, 1329-1333, and RNA from rat kidney (EP4) as templates. 293S cells are transfected with the cloned rat EP4 receptor in pcDNA3 by lipid mediated transfection. Stable cell lines expressing the rat EP4 receptor are established following selection of transfected cells with Geneticin® (Invitrogen Corporation, Carlsbad, Calif.).
(§8) Clonal cell lines expressing the maximal number of receptors are chosen following a whole cell ^3H-PGE2 binding assay using unlabeled PGE2 as a competitor. […] Constitutive expression of the receptor in parental 293-S cells is negligible. A stable cell line containing the rat EP4 receptor is grown in Dulbecco's Mosified Eagle Medium/F12 (DMEM/F12) containing 10% fetal bovine serum and G418 (500 μg/ml) to 80% confluency.
cAMP responses in the 293-S/EP4 lines are determined by detaching cells from culture flasks in 1 ml of calcium (Ca++) and magnesium (Mg++) deficient phosphate buffered saline (PBS) via vigorous pounding and then rinsing the cells with calcium (Ca++) and magnesium (Mg++) deficient phosphate buffered saline (PBS). The cells are resuspended in MEM (Minimum Essential Medium), 1% BSA (bovine serum albumin), 50 mM HEPES (N-[2-Hydroxyethyl]piperazine-N′-[2-ethanesulfonic acid]) at 37° C. The cell suspension is counted on a hemacytometer and diluted by adding MEM (Minimum Essential Medium) to a final concentration of 1×10^6 cells/ml, and adding 3-isobutyl-1-methylxanthine (IBMX) to a final concentration of 1 mM. 200 microliters of cell suspension is immediately aliquoted into individual tubes and incubated for 10 minutes, uncovered, at 37° C., 5% CO2, 95% relative humidity. The compound of Formula I or II to be tested in either dimethylsulfoxide (DMSO) or ethanol is then added to cells at 1:100 dilutions such that the final DMSO or ethanol concentration is 1%. Typically, the cells are treated with 6-8 different concentrations (in 1 log increments, such as those described below) of the compound of Formula I or II. Typical concentrations of the compound of Formula I or II in this assay are between 10^−5M to 10^−10M. For example, a six point compound dose response assay tests the compound of Formula I or II at concentrations of 10^−5M, 10^−6M, 10^−7M, 10^−8M, 10^−9M and 10^—10M. Immediately after adding the test compound, the tubes are covered, mixed by inverting two times, and incubated at 37° C. for 12 minutes. Samples are then lysed by incubation at 100° C. for 10 minutes and immediately cooled on ice for 5 minutes to approximately 4° C. Cellular debris is pelleted by centrifugation at 3500×g for 5 minutes at approximately 4° C., and cleared lysates are transferred to fresh tubes. cAMP concentrations are determined using a commercially available ^125I-cAMP radioimmunoassay (RIA) kit (NEK-033, Perkin-Elmer Life Sciences, Inc., Boston, Mass.). The cleared lysates are diluted 1:100 in cAMP RIA assay buffer (included in kit) and centrifuged again. 50 microliters of the resulting supernatant is transferred to a 12×75 mm glass tube and data is collected by scintillation counting using a Wallac Cobra II Gamma Counter (Perkin-Elmer Wallac, Inc., Gaithersburg, Md.). EC50 calculations are performed on a calculator using linear regression analysis on the linear portion of the dose response curves or using Data Fitter.

rat EP4 receptor [3] = target: T1, rat EP4 receptor; assay: Whole cell 3H-PGE2 binding, Scatchard analysis of 293S/EP4 transfectants; conditions: cell lines selected for compound screening
Protocol: as §8

T2 sequence (Q62928 whole entry): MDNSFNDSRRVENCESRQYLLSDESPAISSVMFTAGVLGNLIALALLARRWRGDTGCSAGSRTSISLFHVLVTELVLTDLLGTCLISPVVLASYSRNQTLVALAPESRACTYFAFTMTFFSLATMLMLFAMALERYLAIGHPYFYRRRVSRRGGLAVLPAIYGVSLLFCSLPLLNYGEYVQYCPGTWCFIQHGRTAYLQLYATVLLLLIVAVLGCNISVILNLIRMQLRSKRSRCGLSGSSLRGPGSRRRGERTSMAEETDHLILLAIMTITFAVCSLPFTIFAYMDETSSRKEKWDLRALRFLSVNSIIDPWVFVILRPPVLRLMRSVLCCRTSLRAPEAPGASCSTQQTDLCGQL
T1 sequence (P43114 whole entry): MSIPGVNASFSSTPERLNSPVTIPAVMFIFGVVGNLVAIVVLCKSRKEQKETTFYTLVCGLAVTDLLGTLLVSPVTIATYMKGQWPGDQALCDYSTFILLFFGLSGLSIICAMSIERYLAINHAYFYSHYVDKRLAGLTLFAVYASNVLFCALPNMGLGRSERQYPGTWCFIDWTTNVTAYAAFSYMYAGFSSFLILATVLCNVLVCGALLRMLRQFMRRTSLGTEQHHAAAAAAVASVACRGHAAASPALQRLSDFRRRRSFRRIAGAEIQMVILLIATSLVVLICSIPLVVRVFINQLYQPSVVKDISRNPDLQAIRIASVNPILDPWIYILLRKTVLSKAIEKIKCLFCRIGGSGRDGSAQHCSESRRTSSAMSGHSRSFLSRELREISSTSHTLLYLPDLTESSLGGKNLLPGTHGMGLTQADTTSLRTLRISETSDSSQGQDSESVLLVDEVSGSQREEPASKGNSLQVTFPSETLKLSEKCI

| IC50 (rat EP4 receptor [1]) [nM] | IC50 (rat EP2 receptor) [nM] | IC50 (human EP1 receptor) [nM] | IC50 (human EP3 receptor) [nM] | EC50 (rat EP4 receptor [2]) [nM] | Kd (rat EP4 receptor [3]) [nM] | SMILES |
| --- | --- | --- | --- | --- | --- | --- |
| 508 | > 3200 | > 3200 | > 3200 | – | – | O=C1CCC(CCC(O)Cc2ccc(F)cc2)N1CCCCCCc1nn[nH]n1 (stereo not drawn) [Example 5, 5-[4-(4-Fluoro-phenyl)-3-hydroxy-butyl]-1-[6-(2H-tetrazol-5-yl)-hexyl]-pyrrolidin-2-one] |
| 96 | > 3200 | – | – | 200 | – | O=C1CCC(CCC(O)Cc2cccc(F)c2)N1CCCCCCc1nn[nH]n1 (stereo not drawn) [Example 7, 5-[4-(3-Fluoro-phenyl)-3-hydroxy-butyl]-1-[6-(2H-tetrazol-5-yl)-hexyl]-pyrrolidin-2-one] |
| 28 | > 3200 | – | – | 24.6 | – | O=C1CC[C@H](CC[C@@H](O)Cc2cccc(Cl)c2)N1CCCCCCc1nn[nH]n1 [Example 8, 5S-[4-(3-Chloro-phenyl)-3R-hydroxy-butyl]-1-[6-(2H-tetrazol-5-yl)-hexyl]-pyrrolidin-2-one] |
| 536 | – | – | – | – | – | O=C(O)CCCCCCN1C(=O)CC[C@@H]1CCC(O)Cc1cccc(Oc2ccccc2)c1 (stereo partly drawn) [Example 10, 7-{2S-[3-Hydroxy-4-(3-phenoxy-phenyl)-butyl]-5-oxo-pyrrolidin-1-yl}-heptanoic acid] |
| – | – | – | – | – | 2.9 | CCCCC[C@H](O)/C=C/[C@H]1[C@H](O)CC(=O)[C@@H]1C/C=C\CCCC(=O)O [PGE2, Prostaglandin E2] |
